Reference: a melting point compilation (Tetko et al.; mined from patent text by program, amines drawn as free bases though some values may be those of a salt)

Work on `CCOc1nn(Cc2ccc(OCc3nc(-c4ccco4)oc3C)c(OC)c2)cc1CCC(=O)O` yielded a melting point of 133 to 134 °C. For `Fc1cccc(C(c2ccccc2)(c2cccc(F)c2)n2ccnc2)c1`, the melting point was 165 to 167 °C. `Cc1ccccc1C1CCN(C(=O)CCC(=O)c2ccc3c(c2)CCN(C(=O)C(F)(F)F)CC3)CC1` gave a melting point of 130 to 131 °C. For `Cc1cc(Br)cnc1NCCCNC1=NS(=O)N=C1NCc1ccc(F)cc1` (configuration not stated), the melting point was 125 to 126 °C. Compound `CC(=O)N1CCC(CC(=O)c2ccc(N(C)C)cc2)CC1` has a melting point of 136 °C. `Cc1cnc(COc2nn3c(-c4ccccc4)nnc3cc2-c2ccccc2)s1` gave a melting point of 182 °C. `O=c1[nH]nc(-c2cccc(OCc3csc(-c4ccccc4F)n3)c2)o1` showed a melting point of 198 to 202 °C. Compound `Cn1c2ccccc2c(=O)n2nc(C(=O)O)cc12` has a melting point of 265 °C. In the case of `CC(C)(C)NC(=O)c1nn(-c2cc(F)cc(F)c2)c2c1C1CCC2C1` (configuration not stated), the melting point is reported as 103 to 107 °C. With `Cc1nc2cnc3ccc(Cl)cc3c2n1-c1ccccc1Cl` the melting point was 178 °C. `COC(=O)[C@H](Cc1ccc(OCc2ccccc2)cc1)NC(=O)C(CSC(C)=O)Cc1ccccc1` (some centres not stated) showed a melting point of 92 to 93 °C. In the case of `O=C1Cc2cccc(C(=O)c3ccc(Cl)cc3)c2N1`, the melting point is reported as 186 °C. Work on `CCCc1ccc(-c2ccn([C@H](CC(=O)OCc3ccccc3)C(=O)N[C@H](C(=O)NC)C(C)(C)C)c2)cc1` yielded a melting point of 63 to 65 °C. Compound `CCc1oc2ccccc2c1C(=O)c1cc(C(C)C)c(OS(=O)(=O)c2ccc(C(=O)O)c(O)c2)c(C(C)C)c1` has a melting point of 200 to 201 °C. In the case of `O=C(NC(=O)N(SN1CCOCC1)c1ccc(Oc2ccc(C(F)(F)F)cc2Cl)cc1F)c1c(F)cccc1F`, the melting point is reported as 77 to 80 °C. In the case of `Fc1ccc(C2CC(n3ccnc3)c3ccccc3N2)cc1` (configuration not stated), the melting point is reported as 168 to 170 °C. `CN1OCC(=O)N(c2ccc(Oc3ccccc3)cc2)C1=S` showed a melting point of 159 to 160 °C. Compound `O=C(O)C(=O)c1c(F)c(F)c(OCCOc2ccc3ccccc3c2)c(F)c1F` has a melting point of 146 to 148 °C. Work on `COc1ccc(C(=O)Nc2ccc3ccc(Oc4cccc(Cl)c4)nc3n2)cc1` yielded a melting point of 182 °C. `CC(C)(C)NC(=O)[C@@H](N)C(C)(C)C` showed a melting point of 78 to 80 °C. `COc1cc(C=CC(=O)c2ccc(OC)c(OC)c2OC)cc(OC)c1` gave a melting point of 112 °C. With `COc1c(O)c(OC)c2c(=O)cc(-c3ccc(O)cc3)oc2c1OC` the melting point was 266 to 268 °C. `CC1CCCN1c1nc(C#N)nc(Cl)c1/C(Br)=C(\Br)[Si](C)(C)C` (configuration not stated) gave a melting point of 166 to 168 °C. `C=C(C)Cn1cnc2c(N)nc3ccccc3c21` showed a melting point of 290 to 294 °C. In the case of `C/C(=C\C(=O)NCc1cccnc1)c1ccc(OCC(=O)O)cc1`, the melting point is reported as 228 to 229 °C. Compound `CN1[C@H]2CC[C@@H]1[C@H](C(=O)Oc1ccc(Cl)cc1)[C@@H](c1ccc(F)cc1)C2` has a melting point of 64 to 66 °C. Work on `CS(=O)(=O)NCCCCCCCCCCCCn1c2c(c3ccccc3c1=O)C(=O)c1ccccc1-2` yielded a melting point of 113 to 117 °C. With `CC(C)(C)c1cc(C=Cc2cc(C=Cc3cc(C(C)(C)C)cc(C(C)(C)C)c3)cc(C=C(Br)Br)c2)cc(C(C)(C)C)c1` the melting point was 148 to 150 °C. In the case of `CC(=O)N1CCC(=O)C(C(c2ccc(C)cc2)c2ccc(C)cc2)C1` (configuration not stated), the melting point is reported as 142 to 144 °C. For `CC(C)N(Cc1nc(-c2ccccc2)no1)C(=O)COc1ccc(C(=O)O)cc1`, the melting point was 211 to 214 °C. Work on `COc1ccccc1/C=C/CN1CCC(=O)C(C(c2ccccc2)c2ccccc2)C1` (configuration not stated) yielded a melting point of 117 to 118 °C. With `N#CCCNC(=O)c1cccc(-c2cccc3nn(Cc4cccc(C(F)(F)F)c4)cc23)n1` the melting point was 178 to 179 °C. For `CN1CC[C@@H](c2c(O)cc(O)c3c(=O)cc(-c4ccccc4Br)oc23)[C@@H]1CO`, the melting point was 235 to 237 °C. For `Clc1cccc(Cl)c1C1=NC2(CO1)COC(c1ccccc1)OC2` (configuration not stated), the melting point was 158 to 160 °C. `CC(C)(CO)c1ccc(C(=O)O)cc1` showed a melting point of 154 to 156 °C. `CCc1[nH]n(C2CCCC2)c2nc(Cc3ccc([N+](=O)[O-])cc3)nc(=O)c1-2` showed a melting point of 221 to 223 °C. Compound `CC(O)(CCC#N)c1ccc(Oc2ccc(Cl)cc2)cc1` (configuration not stated) has a melting point of 68 to 70 °C. Work on `COC(=O)c1cc2cccc(OCc3cccnc3)c2o1` yielded a melting point of 117 to 118 °C. `CC12CCC3c4ccc(O)cc4CC(Sc4ccc(Br)cc4)C3C1CCC2O` (configuration not stated) gave a melting point of 165 to 166 °C. Compound `N#Cc1cccc(C=O)c1[N+](=O)[O-]` has a melting point of 109 to 111 °C. In the case of `C=C(c1ccc(OC)cc1)c1ccc(OC)cc1`, the melting point is reported as 137 °C. For `Nc1ccc(S(=O)(=O)Nc2cc(Cl)nc(C(F)(F)F)c2)cc1`, the melting point was 179 to 181 °C. `Cc1cccc(C)c1CNc1cc(C(=O)N(C)C)nc2c(CO)c(C)[nH]c12` gave a melting point of 301 °C. In the case of `COC(=O)C(CNC(=O)Cc1ccc(OC)c(OC)c1)c1ccc(OC)c(OC)c1` (configuration not stated), the melting point is reported as 92 to 93 °C. `O=Cc1c(-c2ccccc2F)ccc2c1OCO2` showed a melting point of 84 to 86 °C. In the case of `O=[N+]([O-])c1ccc(C2NCCc3c2[nH]c2ccccc32)cc1` (configuration not stated), the melting point is reported as 190 °C. In the case of `CCOC(=O)/C=C/c1ccc(OCCOC)cc1Oc1ccc([N+](=O)[O-])cc1`, the melting point is reported as 61 to 64 °C. `CN(Cc1ccc(NC(=O)C2=Cc3cc(-c4ccc(-n5ccnc5)cc4)ccc3OCC2)cc1)C1CCOCC1` showed a melting point of 194 to 195 °C. For `O=C1Nc2ccc(Cl)cc2C1c1ccccc1Cl` (configuration not stated), the melting point was 198 to 200 °C. Compound `O=C(O)c1cccc(-c2cccc3cc(Cc4cccc(C(F)(F)F)c4)oc23)c1` has a melting point of 169 to 170 °C. In the case of `CC1C(Cc2ccccc2)C(=O)N(Cc2ccccc2)c2ccccc2N1C(=O)CN1C(=O)c2ccccc2C1=O` (configuration not stated), the melting point is reported as 213 to 214 °C. Compound `CNS(=O)(=O)c1cc(OC)c(OC)c(C(=O)NCC2CCCN2C)c1` (configuration not stated) has a melting point of 111 to 112 °C. For `COc1ccc(-n2cc(/C=C(\C#N)C(=O)NS(=O)(=O)c3ccccc3)c(-c3ccc(Cl)c(F)c3)n2)cc1Cl`, the melting point was 263 to 264 °C. Compound `CC1Oc2ccc(C(=O)CCC(=O)O)cc2NC1=O` (configuration not stated) has a melting point of 198 to 200 °C. With `CCOC(=O)c1cn2c3c(c(F)c(F)cc3c1=O)OCC2COC` (configuration not stated) the melting point was 238 °C. Work on `COC[C@@H]1CCCN1S(=O)(=O)c1ccc2c(c1)C(=O)C1=NCCCN12` yielded a melting point of 138 to 141 °C. With `CCN(COC)c1cc(-c2ccnc(Nc3cccc(Cl)c3)n2)ccn1` the melting point was 114 to 115 °C. Compound `CC(CF)(CF)C(O)C(Oc1ccc(Cl)cc1)n1cncn1` (configuration not stated) has a melting point of 97 to 102 °C. Work on `C#CC1(OC(=O)CC)C(COC(=O)c2ccc(Cl)cc2)OC(n2ccc(=O)[nH]c2=O)C1OC(=O)CC` (configuration not stated) yielded a melting point of 208 to 210 °C. `O=S(=O)(F)c1c(F)nc2ccccn12` showed a melting point of 108 to 110 °C. With `Cc1cc(Br)ccc1NC(=O)CC(=O)NCCO` the melting point was 139 to 142 °C. Work on `Cc1nc2cc(-n3cccc3)ccc2o1` yielded a melting point of 115 to 121 °C. `Clc1ccc2c(c1)C(c1ccccc1)=NCc1n[nH]cc1-2` gave a melting point of 241 to 243 °C. `CCOC(=O)c1cnn2c(-c3ccsc3)ccnc12` showed a melting point of 129 to 130 °C. `Clc1cc(Cl)c2c(c1)C[C@@H]1CCc3ccccc3[C@@H]1O2` (relative stereo) gave a melting point of 141 to 144 °C. `CCCCOc1c(C(=O)O)n(CC2CC2)c(=O)c2ccc(OCc3ccccc3)cc12` gave a melting point of 178 to 179 °C. `CNS(=O)(=O)c1cc(C(=O)CCl)ccc1Cl` gave a melting point of 153 °C. Work on `CN(Cc1ccccc1)c1ncnc2c(N3CCOCC3)nc(N3CCC(N(C)C)CC3)nc12` yielded a melting point of 98 °C. In the case of `Cc1[nH]c(=O)c2cc3nc(-c4ccncc4)[nH]c3cc2c1C`, the melting point is reported as > 300 °C. `Cc1ccc(S(N)(=O)=O)cc1C(O)CCl` (configuration not stated) showed a melting point of 126 °C. `Cc1ccc([C@@H]2Sc3ccccc3NC(=O)[C@@H]2CN2CCN(C)CC2)cc1` (relative stereo) gave a melting point of 196 °C. `Cc1nn2c(-c3cccc(NC(=O)OC(C)C)c3)ccnc2c1C(=O)c1cccs1` gave a melting point of 186 to 188 °C. Work on `COC(=O)c1ccccc1S(=O)(=O)N1CCC2(C=Cc3ccccc32)CC1` yielded a melting point of 150 to 152 °C. Compound `CS(=O)(=O)Nc1ccc(CCBr)cc1` has a melting point of 92 to 94 °C. With `O=C1N(Cc2ccc(C(F)(F)F)o2)c2cccc(-c3ccoc3)c2C12COc1cc3c(cc12)CCO3` (configuration not stated) the melting point was 167 to 169 °C. Compound `O=C(O)c1ccc(C(Cc2ccc(F)cc2)C(=O)Nc2nc3ccccc3o2)cc1` (configuration not stated) has a melting point of 199 to 201 °C. For `CC(C)Oc1cc(CCCOc2cc(CCC(=O)O)n(-c3ccccc3)n2)cc(COc2ccc(Cl)cc2Cl)c1`, the melting point was 104 to 106 °C. With `C=C(CCC)C(=O)c1ccc(OCCCC(=O)O)c(Cl)c1Cl` the melting point was 85 to 87 °C. Compound `O=c1oc(-c2ccc(OCCCC(F)(F)F)cc2)nn1CCO` has a melting point of 118 °C. In the case of `CC(Cc1ccc(F)cc1)(NC(=O)CNC(=O)CN)c1ccc(F)cc1` (configuration not stated), the melting point is reported as 139 to 140 °C. For `O=C(O)CCCCCCc1ccc2ccccc2c1[N+](=O)[O-]`, the melting point was 84 to 89 °C. In the case of `O=C1CCC(O)C(C(c2ccccc2)c2ccccc2)N1` (configuration not stated), the melting point is reported as 208 °C. Work on `COc1ccc2[nH]cc(CCCCN3CCN(c4ccc5oc(CO)cc5c4)CC3)c2c1` yielded a melting point of 159 °C. With `CNC(=O)Oc1c(OC)c(OC)c(OC(=O)NC)c2ccccc12` the melting point was 228 to 229 °C. `COC(=O)c1cccc(C=CC(=O)O)c1` gave a melting point of 189 to 190 °C. `Cc1ccc(C(=O)Nc2c(NC(=O)CN(C)CC3OCCO3)ccc3c2C(=O)c2ccccc2C3=O)cc1` showed a melting point of 156 to 157 °C. With `CC(CO)(CO)Nc1ccc([N+](=O)[O-])cc1` the melting point was 120 °C. In the case of `NC(=O)CCCC1(c2ccccc2)CC(O)=CC(=O)O1` (configuration not stated), the melting point is reported as 51 to 54 °C. Work on `O=C(Nc1cccc(C(F)(F)F)c1F)c1ccccc1[N+](=O)[O-]` yielded a melting point of 156 to 157 °C. In the case of `Cc1nc(N2CCN(CCCC(F)(F)F)C2=O)sc1-c1cc[nH]n1`, the melting point is reported as 185 to 186 °C. `Cc1cc(NS(=O)(=O)c2cccc(S(=O)(=O)Nc3cc(C)c(S(=O)(=O)C[N+](=O)[O-])c(C)c3)c2)cc(C)c1S(=O)(=O)C[N+](=O)[O-]` showed a melting point of 191 to 192 °C. In the case of `C=CCN(CCC)S(=O)(=O)NC(=O)c1cc(N=C=S)c(F)cc1Cl`, the melting point is reported as 83 to 85 °C. In the case of `Cc1[nH]c(=S)[nH]c1C(N)=O`, the melting point is reported as < 300 °C. `COC(=O)c1cc(S(C)(=O)=O)c(Cl)cc1C` gave a melting point of 151 °C. In the case of `Cc1c(NC(=O)C(CSC(=O)c2cccnc2)Cc2ccccc2)cccc1C(=O)O` (configuration not stated), the melting point is reported as 80 to 86 °C. `CN(C)N1C(=O)C(Cc2ccncc2)(Cc2ccncc2)c2ccccc21` showed a melting point of 190 to 193 °C. `CO[C@](C)(c1cc(F)cc(OCc2ccc3ccccc3c2)c1)[C@H](C)O` (racemic) gave a melting point of 62 to 63 °C.
